The results in this text go back to patent publication US11648254B2 (Kumquat Biosciences Inc., priority 2021, dated 2023).

The target of one experiment is SOS1 (Homo sapiens (Human), UniProt Q07889). In words: Ras-SOS interaction assay (HTRF). The experiment is classed as biochemical.
The test system of experiment [1] is NCI-H1975 cells (EGFR T790M L858R). In words: EGFR-SOS cellular inhibition assay (CellTiter-Glo, 3D). Particulars: Homo sapiens. The experiment is classed as cell-based.
The test system of experiment [2] is MIA PaCa-2 cells (K-Ras G12C). In words: Ras-SOS cellular growth inhibition assay (CellTiter-Glo, 3D). The experiment is classed as cell-based. The settings on record: Homo sapiens. A digest of the protocol: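 MIA PaCa-2 cells grown in ultra-low-attachment plates (3D) in DMEM/Ham's F12 with 10% FCS and 2.5% horse serum, treated the day after seeding with a 9-point 3-fold compound series for about 5 days. Viability by CellTiter-Glo luminescence; IC50 from four-parameter fit.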

[3] abbreviates: K-RasG13D utilized, read-out: IC50 inhibition of SOS.
The mark [4] stands for this setting: K-RasG13D, read-out: IC50 value against SOS1.
[5] abbreviates: 120 h, NCI-H1975, 3D proliferation, about 5 days, read-out: Bio-Cell-Prolif-3D (H1975 IC50).
Where [6] appears, read: MIA PaCa-2, 120 h, MIA PaCa-2, 3D proliferation, about 5 days, read-out: Bio-Cell-Prolif-3D (MiaPaca2 IC50).
Where [7] appears, read: NCI-H1975, EGFR T790M L858R, read-out: IC50 in inhibiting growth of NCI-H1975 cell line.
[8] abbreviates: MIA PaCa-2, MIA PaCa-2, read-out: IC50 in inhibiting MIA PaCa-2 cell growth.

Where two headings read alike, the source gives them in different places.

Sequence of SOS1 (Q07889 564-1049): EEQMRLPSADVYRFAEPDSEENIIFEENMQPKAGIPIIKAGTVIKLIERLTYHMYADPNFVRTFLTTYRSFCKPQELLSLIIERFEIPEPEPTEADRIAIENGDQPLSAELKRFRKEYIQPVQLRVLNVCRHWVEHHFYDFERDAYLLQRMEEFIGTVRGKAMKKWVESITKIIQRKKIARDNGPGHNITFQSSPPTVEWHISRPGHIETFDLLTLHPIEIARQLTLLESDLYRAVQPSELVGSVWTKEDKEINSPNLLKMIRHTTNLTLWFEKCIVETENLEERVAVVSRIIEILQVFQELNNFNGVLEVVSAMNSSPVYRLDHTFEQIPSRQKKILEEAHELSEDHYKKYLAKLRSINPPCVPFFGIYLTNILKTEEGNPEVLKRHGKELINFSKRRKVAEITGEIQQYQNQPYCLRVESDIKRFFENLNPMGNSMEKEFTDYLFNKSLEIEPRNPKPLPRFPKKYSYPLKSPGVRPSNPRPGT

With `Cc1nc(N[C@H](C)c2cccc(C(F)F)c2F)c2cc(C3CCS(=N)(=O)CC3)c(OCCN(C)C)nc2n1` (stereo partly drawn) [Compound 250, (R)-4-(4-((1-(3-(difluoromethyl)-2-fluorophenyl)ethyl)amino)-7-(2-(dimethylamino)ethoxy)-2-methylpyrido[2,3-d]pyrimidin-6-yl)-1-iminohexahydro-116-thiopyran 1-oxide], the IC50 at SOS1 (setting [3]) was less than 100 nM; on SOS1 (setting [4]) it was less than 50 nM; in experiment [1] (setting [5]) it was 1000 to 10000 nM; in experiment [2] (setting [6]), more than 10000 nM.

With `C[C@@H](Nc1ncnc2nc(OCCN(C)C)c(C3CCS(=O)(=O)CC3)cc12)c1cccc(C(F)F)c1F` [Compound 251, (R)-4-(4-((1-(3-(difluoromethyl)-2-fluorophenyl)ethyl)amino)-7-(2-(dimethylamino)ethoxy)pyrido[2,3-d]pyrimidin-6-yl)tetrahydro-2H-thiopyran 1,1-dioxide], the IC50 is less than 100 nM on SOS1 (setting [3]); less than 50 nM on SOS1 (setting [4]); not above 1000 nM in experiment [1] (setting [5]); less than 500 nM in experiment [1] (setting [7]); 1000 to 10000 nM in experiment [2] (setting [6]).

On to `Cc1nc(N[C@H](C)c2cccc(C(F)F)c2F)c2cc(C3CCN(C)CC3)c(OC3CN(C)C3)nc2n1` [Compound 252, (R)-N-(1-(3-(difluoromethyl)-2-fluorophenyl)ethyl)-2-methyl-7-((1-methylazetidin-3-yl)oxy)-6-(1-methylpiperidin-4-yl)pyrido[2,3-d]pyrimidin-4-amine], for which the IC50 at SOS1 (setting [3]) was less than 100 nM; on SOS1 (setting [4]) it was less than 50 nM; in experiment [1] (setting [5]), not above 1000 nM; in experiment [2] (setting [6]), 1000 to 10000 nM.

On to `Cc1nc(N[C@H](C)c2cccc(C(F)F)c2F)c2cc(C3CCN(C)CC3)c(OC3CNC3)nc2n1` [Compound 253, (R)-7-(azetidin-3-yloxy)-N-(1-(3-(difluoromethyl)-2-fluorophenyl)ethyl)-2-methyl-6-(1-methylpiperidin-4-yl)pyrido[2,3-d] pyrimidin-4-amine], for which the IC50 was less than 100 nM on SOS1 (setting [3]), less than 50 nM at SOS1 (setting [4]), 1000 to 10000 nM in experiment [1] (setting [5]) and 1000 to 10000 nM in experiment [2] (setting [6]).

For the compound `CCN1CCN(c2cc3c(N[C@H](C)c4cccc(C(F)F)c4F)nc(C)nc3nc2OC2CN(C)C2)CC1` [Compound 254, (R)-N-(1-(3-(difluoromethyl)-2-fluorophenyl)ethyl)-6-(4-ethylpiperazin-1-yl)-2-methyl-7-((1-methylazetidin-3-yl)oxy)pyrido[2,3-d]pyrimidin-4-amine], the concentration for half-maximal inhibition (IC50) at SOS1 (setting [3]) was less than 100 nM; on SOS1 (setting [4]), less than 50 nM; in experiment [1] (setting [5]), 1000 to 10000 nM; in experiment [2] (setting [6]), 1000 to 10000 nM.

On to `CCN1CCN(c2cc3c(N[C@H](C)c4cccc(C(F)F)c4F)nc(C)nc3nc2OCCN(C)C)CC1` [Compound 255, (R)-N-(1-(3-(difluoromethyl)-2-fluorophenyl)ethyl)-7-(2-(dimethylamino)ethoxy)-6-(4-ethylpiperazin-1-yl)-2-methylpyrido[2,3-d] pyrimidin-4-amine], for which the IC50 is less than 100 nM on SOS1 (setting [3]), less than 50 nM on SOS1 (setting [4]), not above 1000 nM in experiment [1] (setting [5]) and 1000 to 10000 nM in experiment [2] (setting [6]).

For the compound `Cc1nc(N[C@H](C)c2cccc(C(F)(F)F)c2F)c2cc(N3CCS(=O)(=O)CC3)c(Cl)nc2n1` [Compound 257, (R)-4-(7-chloro-4-((1-(2-fluoro-3-(trtfluoromethyl)phenyl)ethyl)amino)-2-methylpyrido[2,3-d]pyrimidin-6-yl)thiomorpholine 1,1-dioxide], the IC50 is less than 100 nM at SOS1 (setting [3]); less than 50 nM on SOS1 (setting [4]); not above 1000 nM in experiment [1] (setting [5]); less than 500 nM in experiment [1] (setting [7]); not above 1000 nM in experiment [2] (setting [6]); less than 500 nM in experiment [2] (setting [8]).

On to `Cc1nc(N[C@H](C)c2cccc(C(F)(F)[C@H](C)O)c2F)c2cc(C3(C#N)CC3)c(Cl)nc2n1` [Compound 258, 1-(7-chloro-4-(((R)-1-(3-((S)-1,1-difluoro-2-hydroxypropyl)-2-fluorophenyl)ethyl)amino)-2-methylpyrido[2,3-d]pyrimidin-6-yl)cyclopropane-1-carbonitrile], for which the IC50 is less than 100 nM at SOS1 (setting [3]); less than 50 nM on SOS1 (setting [4]); not above 1000 nM in experiment [1] (setting [5]); less than 500 nM in experiment [1] (setting [7]); not above 1000 nM in experiment [2] (setting [6]); less than 500 nM in experiment [2] (setting [8]).

In the case of `Cc1nc(N[C@H](C)c2cccc(C(F)F)c2F)c2cc(N3CCS(=O)(=O)CC3)c(Cl)nc2n1` [Compound 259, (R)-4-(7-chloro-4-((1-(3-(difluoromethyl)-2-fluorophenyl)ethyl)amino)-2-methylpyrido[2,3-d]pyrimidin-6-yl)thiomorpholine 1,1-dioxide], the IC50 on SOS1 (setting [3]) is less than 100 nM; at SOS1 (setting [4]), less than 50 nM; in experiment [1] (setting [5]), not above 1000 nM; in experiment [1] (setting [7]), less than 500 nM; in experiment [2] (setting [6]) it was not above 1000 nM; in experiment [2] (setting [8]), less than 500 nM.

Regarding `Cc1c([C@@H](C)Nc2ncnc3nc(Cl)c(C4CCS(=O)(=O)CC4)cc23)cccc1C(F)(F)F` [Compound 260, (R)-4-(7-chloro-4-((1-(2-methyl-3-(trifluoromethyl)phenyl)ethyl)amino)pyrido[2,3-d]pyrimidin-6-yl)tetrahydro-2H-thiopyran 1,1-dioxide], the concentration for half-maximal inhibition (IC50) on SOS1 (setting [3]) was less than 100 nM; at SOS1 (setting [4]) it was less than 50 nM; in experiment [1] (setting [5]), not above 1000 nM; in experiment [1] (setting [7]), less than 500 nM; in experiment [2] (setting [6]), not above 1000 nM; in experiment [2] (setting [8]), less than 500 nM.

For the compound `C[C@@H](Nc1ncnc2nc(Cl)c(N3CCS(=O)(=O)CC3)cc12)c1cccc(C(F)F)c1F` [Compound 261, (R)-4-(7-chloro-4-((1-(3-(difluoromethyl)-2-fluorophenyl)ethyl)amino)pyrido [2,3-d]pyrimidin-6-yl)thiomorpholine 1,1-dioxide], the IC50 on SOS1 (setting [3]) is less than 100 nM; on SOS1 (setting [4]), less than 50 nM; in experiment [1] (setting [5]) it was not above 1000 nM; in experiment [1] (setting [7]), less than 500 nM; in experiment [2] (setting [6]), not above 1000 nM; in experiment [2] (setting [8]), less than 500 nM.

As for `Cc1nc(N[C@H](C)c2cccc(C(F)(F)F)c2F)c2cc(C3CCS(=O)(=O)CC3)c(Cl)nc2n1` [Compound 262, (R)-4-(7-chloro-4-((1-(2-fluoro-3-(trifluoromethyl)phenyl)ethyl)amino)-2-methylpyrido[2,3-d]pyrimidin-6-yl)tetrahydro-2H-thiopyran 1,1-dioxide], the IC50 on SOS1 (setting [3]) is less than 100 nM; at SOS1 (setting [4]), less than 50 nM; in experiment [1] (setting [5]), not above 1000 nM; in experiment [1] (setting [7]), less than 500 nM; in experiment [2] (setting [6]) it was not above 1000 nM.

Turning to `COc1nc2ncnc(N[C@H](C)c3cccc(C(F)(F)C4CCN(C(C)C)CC4)c3F)c2cc1N1CCN(C(C)C)CC1` [Compound 263, (R)—N-(1-(3-(difluoro(1-isopropylpiperidin-4-yl)methyl)-2-fluorophenyl)ethyl)-6-(4-isopropylpiperazin-1-yl)-7-methoxypyrido[2,3-d]pyrimidin-4-amine], the IC50 was less than 100 nM at SOS1 (setting [3]); less than 50 nM on SOS1 (setting [4]); not above 1000 nM in experiment [1] (setting [5]); less than 500 nM in experiment [1] (setting [7]); not above 1000 nM in experiment [2] (setting [6]); less than 500 nM in experiment [2] (setting [8]).
